# Key:
# LNCaP = test: Inhibition of steroid 5-alpha-reductase in human LNCAP cells assessed as reduction in 5- dihydrotestosterone formation at 100 uM incubated for 60 mins by LC-MS analysis relative to control; type: cell-based
# HeLa = test: Antiproliferative activity against human HeLa cells assessed as reduction in cell viability after 72 hrs by sulforhodamine B assay; type: functional, cell-based
# MCF7 = test: Antiproliferative activity against human MCF7 cells assessed as reduction in cell viability after 72 hrs by sulforhodamine B assay; type: functional, cell-based; details: MCF7, 72 h
# PC-3 = test: Antiproliferative activity against human PC3 cells assessed as reduction in cell viability by MTT assay; type: functional, cell-based
# [1] = Inhibition of steroid 5-alpha-reductase in human LNCAP cells assessed as reduction in 5- dihydrotestosterone formation incubated for 60 mins by LC-MS analysis; type: cell-based; details: 1 h
IC50 (HeLa) [µM],IC50 (MCF7) [µM],IC50 (PC-3) [µM],IC50 [1] [nM],SMILES,inhibition (LNCaP) [%]
,,,760,CC(C)(C)NC(=O)[C@H]1CC[C@H]2[C@@H]3CC[C@H]4NC(=O)C=C[C@]4(C)[C@H]3CC[C@]12C [FINASTERIDE],
> 10,> 10,> 10,,C=C1CCC[C@H]2[C@](C)(CC3=C(O)C(=O)C=C(NCCc4ccccc4)C3=O)[C@@H](C)CC[C@]12C,< 50
> 10,> 10,> 10,,COC(=O)c1cc(O)c(O)c(C[C@H]2C(C)=CC[C@H]3C(C)(C)CCC[C@]23C)c1,< 50

# More lines, now with the values behind:
SMILES,IC50 (HeLa) [µM],IC50 (MCF7) [µM],IC50 (PC-3) [µM],IC50 [1] [nM],inhibition (LNCaP) [%]
C=C1CCC[C@H]2[C@](C)(CC3=C(O)C(=O)C=C(NCC(C)C)C3=O)[C@@H](C)CC[C@]12C,> 10,> 10,> 10,,< 50
COC1=CC(=O)C2=C(C[C@H]3[C@]4(C)CCCC(C)(C)[C@H]4CC[C@@]3(C)O2)C1=O,> 10,> 10,> 10,730,
COC1=CC(=O)C(O)=C(C/C=C(\C)CC/C=C(\C)CCC=C(C)C)C1=O,> 10,> 10,> 10,,< 50
C=C1CCC[C@H]2[C@](C)(CC3=C(O)C(=O)C(CCCCC(C)=O)=C(OC)C3=O)[C@@H](C)CC[C@]12C,> 10,> 10,> 10,,< 50
C=C1CCC[C@H]2[C@](C)(CC3=C(O)C(=O)C=C(OC)C3=O)[C@@H](C)CC[C@@]12C,> 10,> 10,> 10,,< 50
C=C1CCC[C@H]2[C@](C)(CC3=C(O)C(=O)C=C(OC)C3=O)[C@@H](C)CC[C@]12C [ILIMAQUINONE],> 10,> 10,> 10,,< 50
COC(=O)c1cc(C[C@H]2C(C)=CC[C@H]3C(C)(C)CCC[C@]23C)c(O)c(O)c1O,> 10,> 10,> 10,,< 50
